Where a name gives a salt, the structure may show the parent alone.
Assays:
man = details: cited from earlier work
[1] = in comparison to a 15 mg dose of hydrocodone
Description: In certain preferred embodiments, the opioid agonist is oxycodone or hydrocodone.

[2] = cited from earlier work
[3] = after oral doses; cited from earlier work
[4] = test system: methadone-dependent subjects; details: immediate-release naltrexone, interim analysis
[5] = test system: morphine-dependent subjects; assay: Example 17: precipitated withdrawal after hydrocodone immediate release tablets with naltrexone
normal subjects = assay: Example 19: effect of naltrexone on subjective and physiological effects of 15 mg hydrocodone; type: in vivo
[6] = suggested by clinical data of examples 17, 18 and 19

## C=CCN1CC[C@]23c4c5ccc(O)c4O[C@H]2C(=O)CC[C@@]3(O)[C@H]1C5 [naloxone]
man; One mg intravenously
  block of the effect of 25 mg of heroin: completely block
man; given intramuscularly or intravenously in man
  dose that prevents or promptly reverses the effects of morphine-like opioid agonist: 0.4 to 0.8 mg
man; oral, first passage through the liver
  potency after oral administration compared with parenteral administration: significantly lower potency

## COc1ccc2c3c1O[C@H]1C(=O)CC[C@@]4(O)[C@@H](C2)N(C)CC[C@]314 [Oxycodone, 4,5-expoxy-14-hydroxy-3-methoxy-17-methylmorphinan-6-one]
[1]
  Calculated Dose (equianalgesic dose): 13.5 mg

## CN1CC[C@]23CCCC[C@H]2[C@H]1Cc1ccc(O)cc13 [Levorphanol]
[1]
  Calculated Dose (equianalgesic dose): 1.8 mg

## COc1ccc2c3c1OC1C(=O)CC[C@H]4[C@@H](C2)N(C)CC[C@]314 (stereo partly drawn) [Hydrocodone, 4,5-epoxy-3-methoxy-17-methylmorphinan-6-one]
[1]
  Calculated Dose (equianalgesic dose): 15.0 mg

## Meperidine
[1]
  Calculated Dose (equianalgesic dose): 135.0 mg

## O=C1CC[C@@]2(O)[C@H]3Cc4ccc(O)c5c4[C@@]2(CCN3CC2CC2)[C@H]1O5 [hydrochloride salt of naltrexone, Naltrexone HCl]
[2]
  water solubility: very water-soluble
[2]; hydrochloride salt
  solubility in water: about 100 mg/cc

## C[C@H]1[C@H]2Cc3ccc(O)cc3[C@]1(C)CCN2CC1CC1 [cyclazocine]
[3]
  duration of action: ~24 h

## O=C1CC[C@@]2(O)[C@H]3Cc4ccc(O)c5c4[C@@]2(CCN3CC2CC2)[C@H]1O5 [naltrexone]
[4]
  dose able to elicit the signs and symptoms of withdrawal: 0.5 mg
[5]; 1 mg naltrexone dose with hydrocodone immediate release tablets, opioid-dependent subjects
  liking of the agonist: less liking of the agonist relative to the combination with placebo
[5]; subjects in example 17 receiving the 0.25-mg
  withdrawal signs: absence of withdrawal signs
Normal subjects; 15 mg hydrocodone
  dose able to antagonize several centrally mediated opioid effects of hydrocodone, including pupillary miosis: 0.4 mg
Normal subjects; [6]
  bio-available, immediate-release dose that will not affect analgesia to any significant degree: 0.125 mg
  prompt release of bio-available drug that will affect analgesia: ≥ 0.25 mg

## COc1ccc2c3c1O[C@H]1[C@@H](O)C=C[C@H]4[C@@H](C2)N(C)CC[C@@]341 [Codeine]
[1]
  Calculated Dose (equianalgesic dose): 90.0 mg

## CCC(=O)C(CC(C)N(C)C)(c1ccccc1)c1ccccc1 (stereo not drawn) [Methadone]
[1]
  Calculated Dose (equianalgesic dose): 9.0 mg
